The target of data set [1] is T1, uPA (Homo sapiens, UniProt P00749). As to conditions: read-out: uPA Ki; value taken from earlier paper; cited from earlier work.
Data set [2] addresses T1, uPA.
The next data set deals with 85 serine hydrolases. The conditions noted are these: 5 nM-33 μM.
Data set [3] concerns panel of mammalian cell lines. The conditions noted are these: concentrations up to 100 μM.
Data set [4] has as its target T2, epithelial sodium channels (ENaCs) (Homo sapiens, UniProt P37088+P51168+P51170).
T2 sequence (P37088 1-669): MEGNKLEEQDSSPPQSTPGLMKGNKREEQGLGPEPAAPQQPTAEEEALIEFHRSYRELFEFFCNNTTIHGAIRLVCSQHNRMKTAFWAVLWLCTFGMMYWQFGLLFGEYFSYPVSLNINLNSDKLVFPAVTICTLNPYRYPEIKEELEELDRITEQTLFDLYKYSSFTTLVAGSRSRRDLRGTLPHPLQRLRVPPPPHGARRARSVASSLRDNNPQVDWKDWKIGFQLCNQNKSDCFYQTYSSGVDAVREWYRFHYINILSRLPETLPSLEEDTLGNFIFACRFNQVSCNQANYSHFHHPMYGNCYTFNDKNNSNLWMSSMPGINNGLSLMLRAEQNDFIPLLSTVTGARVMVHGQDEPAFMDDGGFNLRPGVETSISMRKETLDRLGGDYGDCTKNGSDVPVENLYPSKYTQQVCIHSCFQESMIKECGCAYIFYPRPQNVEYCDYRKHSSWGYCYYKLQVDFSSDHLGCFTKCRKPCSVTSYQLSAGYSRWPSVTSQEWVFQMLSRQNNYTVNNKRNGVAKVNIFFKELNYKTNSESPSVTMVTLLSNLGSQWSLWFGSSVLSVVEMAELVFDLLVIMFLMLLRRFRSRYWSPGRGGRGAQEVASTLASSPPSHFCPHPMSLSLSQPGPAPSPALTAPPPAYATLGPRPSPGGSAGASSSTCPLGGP
T2 sequence (P51168 1-640): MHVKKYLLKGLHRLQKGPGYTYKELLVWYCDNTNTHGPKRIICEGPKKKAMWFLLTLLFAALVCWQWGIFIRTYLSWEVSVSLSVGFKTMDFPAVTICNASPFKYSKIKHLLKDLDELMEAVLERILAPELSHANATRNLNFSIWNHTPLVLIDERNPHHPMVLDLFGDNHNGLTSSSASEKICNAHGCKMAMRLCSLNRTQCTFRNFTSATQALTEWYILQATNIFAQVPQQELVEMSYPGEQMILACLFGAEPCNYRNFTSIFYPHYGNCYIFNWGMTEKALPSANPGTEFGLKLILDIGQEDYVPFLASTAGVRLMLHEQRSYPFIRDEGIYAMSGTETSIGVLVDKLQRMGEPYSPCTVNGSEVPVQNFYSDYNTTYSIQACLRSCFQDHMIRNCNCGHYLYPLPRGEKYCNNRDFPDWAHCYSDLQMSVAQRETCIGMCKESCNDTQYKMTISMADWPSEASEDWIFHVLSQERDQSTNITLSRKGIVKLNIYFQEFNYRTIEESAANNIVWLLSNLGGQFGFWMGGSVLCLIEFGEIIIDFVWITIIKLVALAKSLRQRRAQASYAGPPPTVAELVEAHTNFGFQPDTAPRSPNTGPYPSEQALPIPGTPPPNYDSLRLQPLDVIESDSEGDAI
T2 sequence (P51170 1-649): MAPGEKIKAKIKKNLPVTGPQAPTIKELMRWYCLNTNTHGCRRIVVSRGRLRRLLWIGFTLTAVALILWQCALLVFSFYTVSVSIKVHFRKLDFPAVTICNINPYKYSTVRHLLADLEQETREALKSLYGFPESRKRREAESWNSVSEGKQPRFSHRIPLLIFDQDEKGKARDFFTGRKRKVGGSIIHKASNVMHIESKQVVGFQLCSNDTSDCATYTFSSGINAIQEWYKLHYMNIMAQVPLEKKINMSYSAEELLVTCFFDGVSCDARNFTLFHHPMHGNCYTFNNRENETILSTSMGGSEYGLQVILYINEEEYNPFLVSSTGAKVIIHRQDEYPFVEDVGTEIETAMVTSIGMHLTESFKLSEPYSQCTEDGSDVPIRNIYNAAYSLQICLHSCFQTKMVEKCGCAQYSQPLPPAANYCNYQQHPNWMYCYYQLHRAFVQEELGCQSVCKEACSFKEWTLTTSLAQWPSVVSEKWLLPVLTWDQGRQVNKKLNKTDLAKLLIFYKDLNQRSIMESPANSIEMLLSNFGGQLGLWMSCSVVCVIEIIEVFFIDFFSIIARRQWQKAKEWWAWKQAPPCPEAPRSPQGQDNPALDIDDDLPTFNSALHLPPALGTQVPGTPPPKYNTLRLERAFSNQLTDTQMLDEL
As to conditions: compounds at 10 μM, n = 4.

Another data set deals with Sprague Dawley rats. The conditions noted are these: 25 mg/kg acetazolamide IV then 1.5 mg/kg compound IP, n = 8.

Results on 13 compounds are retold here after publication PMC7362394 (Bioorganic & medicinal chemistry letters, 2019).

As for `COc1ncc(-c2nc(C(=O)NC(=N)N)c(N)nc2N2CCCCCC2)c(OC)n1` [6-(2,4-dimethoxypyrimidin-5-yl)-5-(N,N-hexamethylene) amiloride], the Ki (usually a dissociation constant, usually derived from enzyme kinetics or from competition with a known ligand) on uPA [1] was 42 nM. In the case of `N=C(N)NC(=O)c1nc(-c2ccccc2)c(N)nc1N` [Compound 3], the “uPA potency relative to amiloride (in words)” value on uPA [2] is listed as “did not improve potency”. On to `CSc1ccc(-c2nc(C(=O)NC(=N)N)c(N)nc2N)cc1` [Compound 4], for which the “uPA potency relative to amiloride (in words)” value on uPA [2] is recorded as “did not improve potency”. On the same count and under the same terms, the result for `N=C(N)NC(=O)c1nc(-c2ccc(C(F)(F)F)cc2)c(N)nc1N` [Compound 5] reads “did not improve potency”. Turning to `COc1ncc(-c2nc(C(=O)NC(=N)N)c(N)nc2N)cn1` [Compound 7], the “inhibition of serine hydrolases in EnPlex assay (in words)” value with 85 serine hydrolases is given as “High uPA selectivity”. For the same compound, the “cytotoxicity across the cell line panel (in words)” value in data set [3] was “much less toxic”. Also, in data set [4], the “ENaC activity (in words)” value is “Complete loss of ENaC activity”. For the same compound, in the data set with Sprague Dawley rats, the “effect on Na+/K+ excretion / solute concentrations (in words)” value is “no significant effect” and the “effect on diuresis (in words)” value is given as “no significant effect”. On to `COc1ncc(-c2nc(C(=O)NC(=N)N)c(N)nc2N)c(OC)n1` [Compound 8], for which the “uPA potency relative to amiloride (in words)” value on uPA [2] is recorded as “only a modest increase in activity”. Regarding `COc1ccc(-c2nc(C(=O)NC(=N)N)c(N)nc2N)c(OC)n1` [Compound 9], the “fold increase in uPA activity relative to amiloride” value at uPA [2] (from Ki values) is recorded as 2 fold. In the case of `N=C(N)NC(=O)c1nc(-c2cccs2)c(N)nc1N` [Compound 10], the “fold increase in uPA activity relative to amiloride” value on uPA [2] (from Ki values) is given as 2 fold. As for `N=C(N)NC(=O)c1nc(-c2ccco2)c(N)nc1N` [Compound 11], the “fold increase in uPA activity relative to amiloride” value on uPA [2] (from Ki values) is on record as 3.3 fold. For `N=C(N)NC(=O)c1nc(-c2cc3ccccc3s2)c(N)nc1N` [Compound 14], the “fold increase in uPA activity relative to amiloride” value on uPA [2] (from Ki values) turned out to be 1.7 fold. Consider `N=C(N)NC(=O)c1nc(-c2cc3cc(Br)ccc3o2)c(N)nc1N` [Compound 19], for which, at uPA [2] (from Ki values), the “fold decrease in uPA activity relative to amiloride” value turned out to be 1.5 fold and the “fold loss of uPA activity relative to 15” value is reported as ~ 12 fold. For `N=C(N)NC(=O)c1nc(-c2ccc3occc3c2)c(N)nc1N` [Compound 23], the “uPA potency relative to 15 (in words)” value at uPA [2] is “only a small decrease in potency”. Turning to `N=C(N)NC(=O)c1nc(-c2ccc3c(c2)CCO3)c(N)nc1N` [Compound 24], the “uPA potency relative to amiloride (in words)” value at uPA [2] is “slight increase”.
